Measured values as given in patent US8143221B2, “Use of ADNF polypeptides for treating peripheral neurotoxicity” (Ramot at Tel-Aviv University, priority 2005, dated 2012).
Ends that are not written are not given here.

Columns and labels:
[1] = system: peripheral neurotoxicity under chemotherapy including L-OHP, FA/5-FU; test: Randomized trial with or without NAP under chemotherapy with oxaliplatin (L-OHP), FA/5-FU; assay type: in vivo; conditions: patients with ACRC, NAP 15 mg/45-70 kg i.v. before L-OHP, vs control group
Protocol: Aim of the study: Chemotherapy with L-OHP, FA, 5-FU has a high activity in advanced colorectal cancer (ACRC). The main dose-limiting toxicity of chemotherapy with L-OHP is a peripheral sensory neuropathy. In this study the patients (pts) will receive a chemotherapy with L-OHP, FA and 5-FU with or without NAP. The question is whether a reduction of side effects of neurotoxicity is seen after application of NAP.
We include 27 patients with ACRC. In arm A chemotherapy is applied with L-OHP 85 mg/m2 d1, FA 500 mg/m2 d1+d2 and 5-FU 4000 mg/m2 over 48 h continuous infusion as biweekly schedule. In arm B, 15 mg/45-70 kg NAP is given over 10 min i.v. before application of the same schedule of chemotherapy. Investigation of toxicity, neurological examination and a blood count is performed before every cycle. For a daily documentation of the side effects every patient receives a questionnaire.

[2] = system: peripheral neurotoxicity induced by the taxane taxol; test: Rota-rod test in taxol-treated rats; conditions: Experiment 2: rats, taxol cumulative 9 mg/kg i.p.; five days after the first taxol injection
Protocol: In the Rota-rod test a rodent is placed on a rotating rod. […] The time spent on the rota-rod without falling was recorded. Impaired animals fall earlier from the rota-rod.
(§3) Forty Sprague-Dawley rats (eight weeks old) were divided into four groups that received the following treatments: a) 10% Cremophor EL in Saline; b) taxol for a cumulative dose of 5.6 mg/kg; c) taxol for a cumulative dose of 5.6 mg/kg+NAP 2.5 μg/kg/Day; or d) taxol for a cumulative dose of 5.6 mg/kg+NAP 25 μg/kg/Day. The taxol was reconstituted in a vehicle of 10% Cremophor EL in Saline.
(§4) Taxol treatments were administered four times intraperitoneally (i.p.) on nonconsecutive days in a volume of 250 μl each time. NAP was administered daily on 8 consecutive days from the first day of taxol injection (with a 2 day brake on the weekend).
Rats were tested in the rota-rod and plantar test. The rota-rod test is described above and assesses muscle strength. […] Statistical differences were tested by ANOVA and by t-test.
Fifteen Sprague-Dawley Rats (seven weeks old) were randomly divided into three groups that received the following treatments: a) 10% Cremophor EL in Saline; b) taxol for a cumulative dose of 9 mg/kg; or c) taxol for a cumulative dose of 9 mg/kg+2.5 μg/kg/Day NAP. The taxol was reconstituted in a vehicle of 10% Cremophor EL in Saline. […]

[3] = system: peripheral neurotoxicity induced by the taxane taxol; test: Plantar test (thermal hyperalgesia) in taxol-treated rats
Protocol: as §3, §4
Rats were tested in the rota-rod and plantar test. […] The plantar test evaluates thermal hyperalgesia. For the plantar test, each rat was placed in a clear plastic chamber with a plastic floor and allowed a short period to acclimatize to the new environment (approximately 2-5 min). The animals were then challenged with a radiant Infrared (IR) heat source directed at the plantar surface of the hind paw from below (7371 Plantar Test, Ugo Basile). The withdrawal latency of both the ipsilateral and contralateral hind paw was evaluated. The infrared intensity was set at IR55 and the maximum length of exposure to the IR source was eighteen seconds. Statistical differences were tested by ANOVA and by t-test. […]

[4] = system: peripheral neurotoxicity induced by the vinca alkaloid vincristine; test: Rota-rod test in vincristine-treated rats; assay type: in vivo; conditions: vincristine 0.175 mg/kg i.p. alone vs saline control, P<0.01
Protocol: (§1) Rats (200-300 g), divided into 4 groups of 10, were injected with vincristine sulfate dissolved in saline. Stock concentration was 2 mg/ml, pH 4.5-5.2. Aliquots of the drug were diluted daily in saline to concentrations of 0.175 mg/ml and were administered i.p. at a dose of 0.175 mg/kg. NAP was prepared at 0.1 mg/1.3 ml in saline (0.9% NaCl) and about 0.1 ml was injected subcutaneously to a ˜300 g rat to achieve a dose of 25 microgram/kg (exact calculations were made based on the daily body weights). For 2.5 microgram/kg, the injection solution was diluted by 10 and again 0.1 ml was injected per rat. Treatments took place daily (5 days a week) for ˜3 weeks (20 days) with the dosage calculated on daily body weight. NAP was administered at the same time as the vincristine, in the dosage and the amount where indicated the following schedule.
(§2) Four groups were evaluated: 1) Control, saline (n=10), 2) Vincristine (i.p.) 0.175 mg/kg (n=10), 3) Vincristine (i.p.) 0.175 mg/kg+NAP (s.c.) 2.5 microgram/kg (n=10), and 4) Vincristine (i.p.) 0.175 mg/kg+NAP (s.c.) 25 microgram/kg (n=10).
After a week cessation of treatment, a final boost of vincristine was given i.p. daily for three days and NAP at 25 microgram/kg was given intranasally to group number 4 only. […] For behavioral testing baseline toxin effects were evaluated 2-23 days following the first injection, using the testing procedures below: […]

[5] = system: peripheral neurotoxicity induced by the vinca alkaloid vincristine; test: Motor evaluation: ability to exit a circle 30 cm in diameter within 20 seconds, vincristine-treated rats; assay type: in vivo; conditions: vincristine 0.175 mg/kg i.p. alone vs control
Protocol: as §1, §2
Motor examination was performed on days 6, 9, 13 and 24 after the initiation of the vincristine injections. Rats were examined after vincristine injection, with the use of a motor disability scale. […]
Animals were assessed based on their failure to walk out of a circle 30 cm in diameter within 20 seconds.

[6] = system: peripheral neurotoxicity induced by the vinca alkaloid vincristine; test: Olfactory discrimination test in vincristine-treated rats; assay type: in vivo; conditions: vincristine alone (group 2)
Protocol: Treatments took place daily (5 days a week) for ˜3 weeks (20 days) with the dosage calculated on daily body weight. NAP was administered subcutaneously at the same time as the vincristine was administered intraperitoneally, in the dosage and the amount indicated in the schedule above. After a week cessation of treatment a final boost of vincristine was given i.p. daily for three days and NAP at 25 microgram/kg was given intranasally to group number 4 only. The intranasal formulation followed the previous experiment (Alcalay et al., infra). An olfactory discrimination test was performed on each of the three days of NAP treatment during the final boost period. (Macknin et al., Brain Res. 1000, 174-78 (2004)) The odors tested were 1) Deionized water (ddw) and 2) Scented extracts, i.e., vanilla/almond.
Overall the experiment included 3 odors (water and two scented extracts) each encompassing 3 trials of 2 minutes. New dipped tip was introduced at the beginning of each trial for the different scents.
Thirty minutes before the testing the subjects were housed in separate cages and a cotton tip dipped in water was placed hanging into the cage. During these 30 minutes the animal was acclimatized to the tip and the cage. Thereafter, the cotton tip was dipped in the desired scent and placed hanging from the top of the cage. […]

[7] = system: neurons of the central nervous system; conditions: in-vitro assays and in vivo disease models; cited from earlier work
tubulin = conditions: cited from earlier work

For `CC[C@H](C)[C@H](NC(=O)[C@H](CO)NC(=O)[C@@H](NC(=O)[C@@H]1CCCN1C(=O)[C@H](C)NC(=O)[C@@H](N)CC(N)=O)C(C)C)C(=O)N1CCC[C@H]1C(=O)N[C@@H](CCC(N)=O)C(=O)O` [NAP, Asn-Ala-Pro-Val-Ser-Ile-Pro-Gln], the “Frequency of grade II/III leucopenia” value [1] was “occurs at a lower frequency than in the control group”.

For `CC(=O)O[C@H]1C(=O)[C@@]2(C)[C@H]([C@H](OC(=O)c3ccccc3)[C@]3(O)C[C@H](OC(=O)[C@H](O)[C@@H](NC(=O)c4ccccc4)c4ccccc4)C(C)=C1C3(C)C)[C@]1(OC(C)=O)CO[C@@H]1C[C@@H]2O` [taxol], the “Rota-rod test: neuromuscular function, toxin alone” value [2] was “a significant effect on neuromuscular function”, the “Plantar test: thermal hyperalgesia, toxin alone” value ([3]; Experiment 1: rats, taxol cumulative 5.6 mg/kg i.p., after the last taxol injection on day three) was “exhibited thermal hyperalgesia” and the “Plantar test: thermal hyperalgesia, toxin alone” value ([3]; Experiment 2: rats, taxol cumulative 9 mg/kg i.p., eight days after the last Taxol injection) was “exhibited a significant thermal hyperalgesia”.

With `CC[C@]1(O)C[C@H]2CN(CCc3c([nH]c4ccccc34)[C@@](C(=O)OC)(c3cc4c(cc3OC)N(C=O)[C@H]3[C@@](O)(C(=O)OC)[C@H](OC(C)=O)[C@]5(CC)C=CCN6CC[C@]43[C@@H]65)C2)C1` [vincristine] the “Rota-rod performance, toxin alone vs control” value [4] was “significant difference between the vincristine treated animals and the control animals indicating impairment”, the “Ability to exit a circle 30 cm in diameter within 20 seconds, toxin alone vs control” value ([5]; P<0.001) was “significantly reduced” and the “Ability to exit a circle 30 cm in diameter within 20 seconds, toxin alone vs control” value ([5]; P<0.001, listed as Vincristine) was “significantly worse as compared to control animals”. The “Time spent with new odors: olfaction capacity, toxin alone” value [6] was “did not show any initial interest in the new smell”.

In the case of SALLRSIPA, the “Neuron survival in response to various insults” value [7] is given as “keep neurons of the central nervous system alive” and the Interaction with tubulin (tubulin) is given as “interact with tubulin”.

B1: ADNP: full length ADNF III, activity-dependent neuroprotective protein (protein, UniProt Q9H2P0 1-1102, looked up)
chain: MFQLPVNNLGSLRKARKTVKKILSDIGLEYCKEHIEDFKQFEPNDFYLKNTTWEDVGLWDPSLTKNQDYRTKPFCCSACPFSSKFFSAYKSHFRNVHSEDFENRILLNCPYCTFNADKKTLETHIKIFHAPNASAPSSSLSTFKDKNKNDGLKPKQADSVEQAVYYCKKCTYRDPLYEIVRKHIYREHFQHVAAPYIAKAGEKSLNGAVPLGSNAREESSIHCKRCLFMPKSYEALVQHVIEDHERIGYQVTAMIGHTNVVVPRSKPLMLIAPKPQDKKSMGLPPRIGSLASGNVRSLPSQQMVNRLSIPKPNLNSTGVNMMSSVHLQQNNYGVKSVGQGYSVGQSMRLGLGGNAPVSIPQQSQSVKQLLPSGNGRSYGLGSEQRSQAPARYSLQSANASSLSSGQLKSPSLSQSQASRVLGQSSSKPAAAATGPPPGNTSSTQKWKICTICNELFPENVYSVHFEKEHKAEKVPAVANYIMKIHNFTSKCLYCNRYLPTDTLLNHMLIHGLSCPYCRSTFNDVEKMAAHMRMVHIDEEMGPKTDSTLSFDLTLQQGSHTNIHLLVTTYNLRDAPAESVAYHAQNNPPVPPKPQPKVQEKADIPVKSSPQAAVPYKKDVGKTLCPLCFSILKGPISDALAHHLRERHQVIQTVHPVEKKLTYKCIHCLGVYTSNMTASTITLHLVHCRGVGKTQNGQDKTNAPSRLNQSPSLAPVKRTYEQMEFPLLKKRKLDDDSDSPSFFEEKPEEPVVLALDPKGHEDDSYEARKSFLTKYFNKQPYPTRREIEKLAASLWLWKSDIASHFSNKRKKCVRDCEKYKPGVLLGFNMKELNKVKHEMDFDAEWLFENHDEKDSRVNASKTADKKLNLGKEDDSSSDSFENLEEESNESGSPFDPVFEVEPKISNDNPEEHVLKVIPEDASESEEKLDQKEDGSKYETIHLTEEPTKLMHNASDSEVDQDDVVEWKDGASPSESGPGSQQVSDFEDNTCEMKPGTWSDESSQSEDARSSKPAAKKKATMQGDREQLKWKNSSYGKVEGFWSKDQSQWKNASENDERLSNPQIEWQNSTIDSEDGEQFDNMTDGVAEPMHGSLAGVKLSSQQA
modifications: full-length
In the case of B1, the Interaction with tubulin (tubulin) is given as “interact with tubulin”.
